Tested on: CD31 signaling complex captured by PECAM1.2 (CD31 domain 6) beads
Assay: CBA beads assessment of CD31 ITIM-dependent inhibitory pathway in Jurkat T cells (protein association and phosphorylation)
Format: cell-based, human
Procedure: Lysis of the cells. Jurkat T cells in log phase (10×10^6/ml, 1 ml) were either left untouched (negative control) or incubated with Na3VO4/H2O2 (sodium ortovanadate which is a tyrosin phosphatase inhibitor, positive control for tyrosin phosphorylation). In parallel, cells were stimulated either with CD3 or with CD3+ CD31 (domain 2, WM-59 antibody) by antibody-mediated crosslinking. After 20′ incubation at 37° C. in 5% CO2, the cells were lysed on ice for 30′ with a RIPA buffer containing a cocktail of protease and phosphatase inhibitors. Lysates were ultragentrifuged and supernatants were used either straightforward or aliquoted and stored at −20° for further analysis.
Capture of the target protein on a solid support (1 hour at room temperature). This step follows the principle of imunoprecipitation but the signaling complex is nor denatured neither reduced, and no electrophoresis and/or blotting is carried out. As a solid support, CBA® functional beads previously coupled with an antibody directed to the membrane-proximal CD31 Ig-like domain 6 (clone MBC 78.2 also called PECAM1.2) were used following the manufacturer's instructions. An aliquot of 20 μl of lysate supernatant from each condition was incubated with 5 μl PECAM1.2-CBA® for 1 hour at room temperature.
Detection of molecules associated with CD31 and of the phosphorylation state of CD31 ITIM 686. After washing of the beads once with CBA washing buffer (100 μl/tube), the beads were been aliquoted in 4 separate tubes and incubated with fluorescent antibodies directed to: • CD3-FITC; • CD28-PE; • CD31 domain 6 (PECAM1.2 FITC) • CD31 domain 2 (WM-59 PE) • phosphoTyrosin (clone 4G10 FITC); • phosphoSerin/Threonin (labelled with FITC) • CD31 phosphotyrosin 686 (rabbit polyclonal conjugated with alexafluor 488 antirabbit secondary antibody); or • SHP2-PE.
After 1 hour incubation at room temperature in the dark, beads were washed once with 100 μl CBA washing buffer and more than 600 beads were acquired using an LSR II and DIVA® software.
4. Analysis. The median fluorescence in each fluorescent channel was recorded. The DIVA® software also calculated the % CV (variability coefficient), which can be considered as an equivalent of error bar value for repeated measure and allow statistical comparison between samples.

[1] = Jurkat T cell lysate, 20' incubation, captured on PECAM1.2-CBA beads

sodium ortovanadate [Na3VO4/H2O2]
MFI CD3 (CD3 associated with bead-captured CD31, Jurkat T cells): 354 MFI | MFI CD28 (CD28 associated with bead-captured CD31, Jurkat T cells): 3932 MFI | % shed CD31 [1]: 25% | CD31 dom2 [1]: 77 ng/mL | CD31 dom6 [1]: 103 ng/mL | MFI SHP-2 (SHP-2 associated with bead-captured CD31, Jurkat T cells): 193 MFI | MFI CD31 pY686 (bead-captured CD31, Jurkat T cells): 10667 MFI | MFI pSer/pThreo (phosphoSerin/Threonin on bead-captured CD31 complex, Jurkat T cells): 324 MFI | MFI pY (4G10) (total phosphoTyrosin on bead-captured CD31 complex, Jurkat T cells): 1205 MFI

Reference: patent publication US9977030B2, “Detection of shed CD31, diagnosis of atherothrombosis and autoimmune disorders, and methods for analyzing signaling pathways” (INSTITUT NATIONAL DE LA SANTE ET DE LA RECHERCHE MEDICALE …, priority 2008, dated 2018)
